# Where a SMILES comes first, the peptide text is derived from it. Bridges are numbered along the chain shown (N, C = ends). Where no end group is shown, it is not given here.
# Columns and labels:
# Serum stability = format: in vitro ADME; conditions: 300 μM stock diluted 10 times in 100% human serum (male AB plasma), 37°C, analytical HPLC, 215 nm, triplicate; for stability in human serum (in words): 0-24 h
# Protocol: The stability of peptides in human serum was examined using a protocol reported previously (Chan et al., [2011]). Briefly, stock solutions of peptides (300 μM) were diluted 10 times with pre-warmed 100% human serum isolated from male AB plasma (Sigma-Aldrich) and incubated at 37°C for 0, 1, 2, 3, 5, 8, 12 and 24 h. Controls with peptides in PBS were included. The reaction was stopped by denaturing the serum proteins with urea at a final concentration of 3 M at 4°C for 10 min, followed by precipitation of serum proteins with trichloroacetic acid at a final concentration of 7% (v/v) (4°C, 10 min) and centrifugation (17,000 g, 10 min). The supernatant of each sample was recovered and run on an analytical column using a linear gradient of 5–30% solvent B (acetonitrile 90% (v/v) with 0.045% (v/v) TFA in H2O) in solvent A (0.05% (v/v) TFA in H2O) over 25 min at a flow rate of 0.3 mL/min with monitoring at 215 nm. The elution profile of each peptide was identified by the PBS sample from 0 time point. The percentage of peptide remaining in serum-treated samples was determined by comparing the height of the peptide peak obtained at each time point with that of the peptide peak obtained at 0 time point. Each experiment was done in triplicate.
# Figure 4 Serum-stability of tested peptides. Percentage of peptide remaining upon incubation with human serum. The portion of serum-treated peptide remaining was determined by calculating the height of the respective elution peak in analytical-HPLC and comparing it with control without incubation. Data points are means ± SD of three experiments.
# HeLa cells = assay: Internalization of Alexa fluor 488-labeled peptides into HeLa cells (flow cytometry); format: cell-based, human; conditions: 8 μM Alexa fluor 488-labeled peptide, 1 h, 37°C, medium without serum, flow cytometry, 10,000 cells, mean ± SD of three independent experiments
compound,measurement,setting,value
YGRKARRRRRR [CTP512],time to full degradation by proteases in serum,Serum stability; peak height vs 0 time point,≤ 1 h
"CC[C@H](C)[C@@H]1NC(=O)[C@@H]2CSSC[C@@H]3NC(=O)[C@H](C(C)C)NC(=O)CNC(=O)CNC(=O)[C@H](CC(=O)O)NC(=O)[C@H](CO)NC(=O)CNC(=O)[C@H](CO)NC(=O)CNC(=O)[C@@H]4CSSC[C@H](NC(=O)[C@H](CC(=O)O)NC(=O)[C@H](CO)NC(=O)[C@H](CC(=O)O)NC(=O)[C@H](CCCNC(=N)N)NC(=O)[C@H](CCCNC(=N)N)NC(=O)[C@H](CSSC[C@H](NC1=O)C(=O)N[C@@H](CCCCN)C(=O)NCC(=O)N[C@@H](CC(N)=O)C(=O)NCC(=O)N[C@@H](Cc1ccc(O)cc1)C(=O)N4)NC(=O)[C@H](CCCNC(=N)N)NC(=O)[C@H](CCCNC(=N)N)NC(=O)[C@H](CCCNC(=N)N)NC(=O)[C@H](C)NC(=O)[C@H](CCCNC(=N)N)NC(=O)[C@H](CCCNC(=N)N)NC(=O)CNC(=O)[C@H](Cc1ccc(O)cc1)NC3=O)C(=O)N1CCC[C@H]1C(=O)NCC(=O)N[C@@H](C)C(=O)N2 [MCo-CTP] (cyclo(ACICKGNGYCGSGSDGGVCYGRRARRRCRRDSDCPG); disulfide 2-19, 4-28, 10-34)",stability in human serum (in words),Serum stability,stable in human serum
same,"remaining at 12 h, 30 µM","Serum stability; 12 h, peak height vs 0 time point, read-out: peptide remaining intact after 12 h incubation in serum",> 60%
"NH2-YGRKKRRQRRRPPQG-COOH [TAT, gold standard linear cell-penetrating peptide]","Fluorescence signal of HeLa cells, before trypan blue (mean fluorescence emission normalized to TAT after trypan blue)",HeLa cells; ex 488 nm / em 530/30 nm,1.08 ± 0.07
same,"Fluorescence signal of HeLa cells, after trypan blue (mean fluorescence emission normalized to TAT after trypan blue)",HeLa cells; trypan blue 160 μg/mL,1.00 ± 0.17
"CC[C@H](C)[C@@H]1NC(=O)[C@@H]2CSSC[C@@H]3NC(=O)[C@H](C(C)C)NC(=O)CNC(=O)CNC(=O)[C@H](CC(=O)O)NC(=O)[C@H](CO)NC(=O)CNC(=O)[C@H](CO)NC(=O)CNC(=O)[C@@H]4CSSC[C@H](NC(=O)[C@H](CC(=O)O)NC(=O)[C@H](CO)NC(=O)[C@H](CC(=O)O)NC(=O)[C@H](CCCNC(=N)N)NC(=O)[C@H](CCCNC(=N)N)NC(=O)[C@H](CSSC[C@H](NC1=O)C(=O)N[C@@H](CCCCN)C(=O)NCC(=O)N[C@@H](CC(N)=O)C(=O)NCC(=O)N[C@@H](Cc1ccc(O)cc1)C(=O)N4)NC(=O)[C@H](CCCNC(=N)N)NC(=O)[C@H](CCCNC(=N)N)NC(=O)[C@H](CC(C)C)NC(=O)[C@H]([C@@H](C)CC)NC(=O)[C@H](CCCNC(=N)N)NC(=O)[C@@H]1CCCN1C3=O)C(=O)N1CCC[C@H]1C(=O)NCC(=O)N[C@@H](C)C(=O)N2 [MCo-RM1] (cyclo(ACICKGNGYCGSGSDGGVCPRILRRCRRDSDCPG); disulfide 2-19, 4-26, 10-32)",stability in human serum (in words),Serum stability,stable in human serum

# From paper PMC4321561, “Optimization of the cyclotide framework to improve cell penetration properties” (Frontiers in Pharmacology, 2015)
